Experimental data: paper PMC10628858, “Investigation of new ferrocenyl-artesunate derivatives as antiparasitics” (Dalton Transactions (Cambridge, England : 2003), 2023)
Where two headings read alike, the source gives them in different places.

Key:
[1] = Aqueous stability (hydrolysis) by UV-Vis kinetic scan in 10% MeOH (aq); type: physicochemical
Experimental: Since biological systems are comprised of water, the behavior and stability of a drug in aqueous media is important. To determine the stability, each complex was dissolved in MeOH and then diluted to 10% MeOH (aq). The solutions were then monitored by UV-Vis spectroscopy using a kinetic scan in the range 190–1100 nm over 1 hour. […] Hydrolysis was also supported by RP-HPLC in which new peaks emerged corresponding to the starting ferrocene precursors, F2 and F4. […] […] The major difference being between C1/C2 and C3/C4 is the nature of the linkage either being an ester or an amide bond. It is expected that the hydrolysis of C2 would occur quicker due to the more labile nature of the ester bond.
UV-Vis studies were performed by dissolving each complex in methanol to a concentration of 1 mM. This was then diluted using distilled water in a 10% methanol/water mixture giving a final concentration of 100 μM. The complexes were then monitored using a kinetic scan between the range 190–1100 nm scanning each minute over the course of one hour. […]

[2] = system: T. gondii (ΔKu80::mNeonGreen); assay: T. gondii growth inhibition assay (mNeonGreen fluorescence); type: cell-based, Toxoplasma gondii; details: three independent experiments in triplicate, ± SEM
Experimental: […]. The rate of hydrolysis of C2 and C4 is closely correlated to the activity seen against T. gondii, such that the more readily the complex separates into its constituents, parts the better the overall activity.
To further investigate whether the accumulation of ROS was implicated in the MoA, the growth inhibition studies were repeated in the presence of the ROS scavenger N-acetyl cysteine (NAC) (Table 5).
Growth inhibition assays were performed in black, clear-bottomed 96 well plates preseeded with Human foreskin fibroblasts (HFFs) as described previously.[48] ΔKu80:mNeonGreen T. gondii were counted using a hemeocytometer and media from the host-cell seeded plate was aspirated and replaced with either 200 μL of D3 or 200 μL of media + 5000 parasites per well. Infected cells were incubated for 2 hours at 37 °C with 5% CO2 to allow for invasion. Following this, the media was removed and replaced with 100 μL fresh media. 100 μL of media containing 100 μM of the indicated drug in sterile DMSO was added and serially diluted. The parasites were then incubated for four days at 37 °C with 5% CO2 then flourescense read using the PHERAstar microplate reader. After removal of background, fluorescence values were normalised to untreated and plotted. Data analysis and non-linear regression was performed in Prism.

T. gondii = assay: Determination of intracellular ROS levels with CellROX by flow cytometry; type: cell-based, Toxoplasma gondii; details: 5 μM, 6 hours, 50 000 parasites, vs untreated
Experimental: Since both ferrocene and artesunate are able to generate ROS, we attempted to quantify the intracellular ROS levels in the parasite using CellROX, a compound which fluoresces in the presence of ROS. Treatment with artesunate was included as positive control as previous studies have linked artesunate treatment to ROS accumulation.[44] The parasites were treated with 5 μM of complexes C1, C3 and C4, and incubated for 6 hours. […] Since T. gondii rely predominately on heme biosynthesis as opposed to incorporation of heme from host hemoglobin, the concentration of iron present in the parasite is lower.[45] But, by incorporating an iron center in the molecule the slower activation may be circumvented leading to quicker cell death and a decreased CellROX reading.
Fig. 5 CellROX fluorescence quantified by flow cytometry from 50 000 parasites. T. gondii were untreated (grey) or treated for 6 hours with 5 μM compounds (blue) or artesunate (red) as a positive control.
Intracellular parasites were treated with 5 μM of the drug and incubated at 37 °C with 5% CO2 for either 18 hours or 6 hours. The parasites were released from host cells by scraping and syringing followed by passing through 3 μm filters to remove host-cell debris. The parasites were spun down at 6000 RPM for 10 minutes and resuspended in 500 μL PBS. 100 μL of the parasite suspension was placed in a FACS tube and a stock solution of CellROX dye in PBS (1 : 125 dilution) was added to this. This was then incubated in the dark at 37 °C for 1 hour and then read using a BD Celesta. Parasites were gated on forward and side scatter and on mNeonGreen fluorescence and histograms of Cy5 signal presented. Data analysis was performed using Flowjo.

PNT1A cells = assay: MTT cell viability assay, PNT1A; type: cell-based, human; details: 48 h
Experimental: To assess the cytotoxicity of the four compounds a MTT cell viability assay using human embryonic kidney (HEK293) and human prostatic (PNT1A) cell lines were performed. […] The long chain compounds C1 and C3 were also shown to be non-cytotoxic towards the HEK293 cell line.
The immortalised human prostatic epithelial cell line, PNT1A (Sigma Aldrich, 95012614) was cultured in RPMI-1640 containing 10% foetal calf serum (Life Technologies, South Africa). The human embryonic kidney cell line HEK293 (ATCC) was cultured in DMEM (Life Technologies, South Africa). Both cell lines were cultured at 37 °C under 5% CO2 with 1% penicillin and streptomycin. Cancer cell cytotoxicity was evaluated using the MTT viability assay according to our previous method.[49] Briefly, cells were seeded at a density of 3 × 10^3 cells per well in 96-well plates and allowed to settle overnight. A 100 mM stock of C1/C2 and a 50 mM stock solution of C3/C4 in DMSO was prepared from which dilutions were made. The compound was then added to the cells in triplicate to obtain the indicated concentrations and 0.1% DMSO. Controls included cells treated with […] DMSO alone. After 48 h, 10 μL of 5 mg mL^−1 MTT (3-(4,5-dimethylthiazol-2-yl)-2,5-diphenyltetrazolium bromide) (Sigma-Aldrich) was added, and incubated with the cells for 4 h, followed by addition of 100 μL 10% SLS, 0.01 M HCL. The plates were read at 595 nm on a Multiscan FC plate reader (Thermo Scientific) and the data was fitted to a variable slope dose–response curve using Graphpad prism v6 to obtain the cytotoxicity IC50. The assay was repeated independently three times where inhibition was observed.

[3] = no curve could be fitted within one hour
[4] = four days, in HFF host cells, read-out: IC50 against T. gondii
[5] = with 5 mM NAC (ROS scavenger), read-out: IC50 + NAC against T. gondii
[6] = change in absorbance at 254 nm over one hour, ExpDec1 fit

Row | Structure (SMILES) | Half-life [1, 3] [h] | IC50 [2, 4] [nM] | IC50 [2, 5] [nM] | Change in CellROX signal (intracellular ROS) (T. gondii) | IC50 (PNT1A cells) [nM] | Half-life [1, 6] [h] | Rate constant (hydrolysis) [1, 6] [min⁻¹]
1 | CC1CCC2C(C)C(OC(=O)CCC(=O)OCCNC(=O)[c-]3cccc3)OC3OC4(C)CCC1C32OO4.[Fe+2].c1cc[cH-]c1 (stereo not shown) [Compound C1] | >1 | 680 ± 31 | 830 ± 130 | no change in CellROX signal | > 100000 |  | 
2 | CC1CCC2C(C)C(OC(=O)CCC(=O)NC[c-]3cccc3)OC3OC4(C)CCC1C32OO4.[Fe+2].c1cc[cH-]c1 (stereo not shown) [Compound C4] |  | 600 ± 35 | 1200 ± 179 | no change in CellROX signal | > 50000 | 0.155 ± 0.0035 | 0.074 ± 0.0016
3 | CC1CCC2C(C)C(OC(=O)CCC(=O)NCCNC(=O)[c-]3cccc3)OC3OC4(C)CCC1C32OO4.[Fe+2].c1cc[cH-]c1 (stereo not shown) [Compound C3] | >1 | 1200 ± 64 | 1500 ± 140 | increase in intracellular ROS | > 50000 |  | 
